pEC50: −log10 of the molar value. Where a name gives a salt, the structure may show the parent alone.
System: HBV
Assay: Primary anti-HBV assay, extracellular HBV DNA by real-time qPCR from HepG2 2.2.15 cells
Assay type: cell-based, HBV wild-type strain ayw1
Method: The primary anti-HBV assay was performed by using real-time qPCR (TaqMan) to measure extracellular HBV DNA copy number associated with virions released from HepG2 2.2.15 cells. The HepG2 2.2.15 cell line was a stable human hepatoblastoma cell line that contains two copies of the HBV wild-type strain ayw1 genome and constitutively produces high levels of HBV. Antiviral compounds blocking any […] step of viral replication such as transcription, translation, pregenome encapsidation, reverse transcription, particle assembly and release can be identified and characterized using this cell line. Briefly, HepG2 2.2.15 cells were plated in 96-well microtiter plates at 1.5×10^4 cells/well in Dulbecco's Modified Eagle's Medium supplemented with 2% FBS, 380 μg/mL G418, 2.0 mM L-Glutamine, 100 units/mL Penicillin, 100 μg/mL Streptomycin, and 0.1 mM non-essential amino acids. Only the interior wells were utilized to reduce “edge effects” observed during cell culture; the exterior wells were filled with complete medium to help minimize sample evaporation. After 16-24 hours the confluent monolayer of HepG2 2.2.15 cells was washed and the medium was replaced with complete medium containing various concentrations of a test compound in triplicate. Lamivudine (3TC) was used as the positive control, while media alone was added to cells as a negative control (virus control, VC). Three days later the culture medium was replaced with fresh medium containing the appropriately diluted test compounds. Six days following the initial administration of the test compound, the cell culture supernatant was collected, treated with pronase and then used in a real-time quantitative TaqMan qPCR assay. The PCR-amplified HBV DNA was detected in real-time by monitoring increases in fluorescent signal that result from the exonucleolytic degradation of a quenched fluorescent probe molecule that hybridizes to the amplified HBV DNA. […] Antiviral activity was calculated from the reduction in HBV DNA levels (EC50 values determined). […] The Selectivity Index was calculated as CC50/EC50.

C[C@H](Cn1cnc2c(N)ncnc21)OCP(=O)(OCOC(=O)C(C)(C)C)Oc1ccccc1 (stereo partly drawn) [((((((R)-1-(6-amino-9H-purin-9-yl)propan-2-yl)oxy)methyl)(phenoxy)phosphoryl)oxy)methyl pivalate fumarate]
Selectivity Index (CC50/EC50, HepG2 2.2.15 cells): >1250 | Conclusion: activity against HBV (HepG2 2.2.15 cells): potently active | pEC50 (Hepatitis B virus, 144 h, reduction in extracellular HBV DNA, HepG2 2.2.15 cells, six days): 7.10

Reference: patent publication US12090163B2, “Pharmaceutical compositions” (CIPLA LIMITED, priority 2017, dated 2024)
